Experimental data published in ChEMBL document CHEMBL1201862, “PubChem BioAssay data set” (2004).
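Five concentrations, 48 hours, 96-well plates. Here, GI50 denotes the concentration required for 50% inhibition of growth.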 Active and inactive are the calls of the source. No stated cut-off is given here; in the data, active = GI50 up to about 1.1 µM and inactive = higher.

Columns and labels:
Test in all cases: NCI tumour cell line growth inhibition, 48 h
K562 = tested on: K562
HOP-62 = tested on: HOP-62
SNB-19 = tested on: SNB-19
SF-295 = tested on: SF-295
RXF 393 = tested on: RXF 393
HCT-15 = tested on: HCT-15
UO-31 = tested on: UO-31
A549 = tested on: A549
SK-MEL-2 = tested on: SK-MEL-2
NCI/ADR-RES = tested on: NCI/ADR-RES
SF-268 = tested on: SF-268
OVCAR-4 = tested on: OVCAR-4
PC-3 = tested on: PC-3
T47D = tested on: T47D
HCT-116 = tested on: HCT-116
SK-OV-3 = tested on: SK-OV-3
OVCAR-5 = tested on: OVCAR-5
A498 = tested on: A498
NCI-H460 = tested on: NCI-H460
MDA-MB-435 = tested on: MDA-MB-435

SMILES | GI50 (K562) | GI50 (HOP-62) | GI50 (SNB-19) | GI50 (SF-295) | GI50 (RXF 393) | GI50 (HCT-15) | GI50 (UO-31) | GI50 (A549) | GI50 (SK-MEL-2) | GI50 (NCI/ADR-RES) | GI50 (SF-268) | GI50 (OVCAR-4) | GI50 (PC-3) | GI50 (T47D) | GI50 (HCT-116) | GI50 (SK-OV-3) | GI50 (OVCAR-5) | GI50 (A498) | GI50 (NCI-H460) | GI50 (MDA-MB-435)
COc1cc2nc(-c3ccc4ccccc4c3)nc(O)c2cc1OC | > 100 µM (inactive) | 19 µM (inactive) | 23.8 µM (inactive) | 48.9 µM (inactive) | 41.7 µM (inactive) | > 100 µM | > 100 µM (inactive) | > 100 µM (inactive) | 42.8 µM (inactive) | 69.5 µM (inactive) | 19.1 µM (inactive) | 42.9 µM (inactive) | > 100 µM (inactive) | > 100 µM (inactive) | > 100 µM (inactive) | > 100 µM (inactive) | > 100 µM (inactive) | 72.9 µM (inactive) | > 100 µM (inactive) | –
O=C(CCc1nnc2s/c(=C\c3ccc4c(c3)OCO4)c(=O)n12)Nc1cc(Cl)ccc1Cl | > 100 µM (inactive) | > 100 µM (inactive) | > 100 µM (inactive) | > 100 µM (inactive) | > 100 µM (inactive) | > 39.8 µM | > 100 µM (inactive) | > 100 µM (inactive) | > 100 µM (inactive) | – | > 100 µM (inactive) | > 100 µM (inactive) | – | – | > 50.9 µM (inactive) | > 100 µM (inactive) | > 100 µM (inactive) | > 100 µM (inactive) | > 100 µM (inactive) | –
O=C1Nc2c(Cl)cc(Cl)cc2/C1=N/N=C/c1ccccc1O | 21.2 µM (inactive) | 17.2 µM (inactive) | 61.8 µM (inactive) | 22.5 µM (inactive) | 21.2 µM (inactive) | 17.8 µM | 27.6 µM (inactive) | 29.2 µM (inactive) | 19.5 µM (inactive) | 19.5 µM (inactive) | – | 27.6 µM (inactive) | 19.5 µM (inactive) | – | 17.5 µM (inactive) | 30.6 µM (inactive) | 21.5 µM (inactive) | 18.7 µM (inactive) | 14.7 µM (inactive) | 21.7 µM (inactive)
COC(=O)/C=C/COCC1C2CCC(=O)C21 (centres undefined) | > 100 µM (inactive) | > 100 µM (inactive) | > 100 µM (inactive) | > 100 µM (inactive) | > 100 µM (inactive) | > 100 µM | > 100 µM (inactive) | > 100 µM (inactive) | > 100 µM (inactive) | > 100 µM (inactive) | > 100 µM (inactive) | > 100 µM (inactive) | > 100 µM (inactive) | – | > 100 µM (inactive) | > 100 µM (inactive) | > 100 µM (inactive) | – | > 100 µM (inactive) | > 100 µM (inactive)
CC(=O)NC(C)(C)C1CCC(C)=C(c2ccccc2)C1 (centres undefined) | 42 µM (inactive) | > 100 µM (inactive) | > 100 µM (inactive) | > 100 µM (inactive) | – | 74 µM | > 100 µM (inactive) | > 100 µM (inactive) | – | – | > 100 µM (inactive) | > 100 µM (inactive) | > 100 µM (inactive) | > 100 µM (inactive) | 87.5 µM (inactive) | > 100 µM (inactive) | > 100 µM (inactive) | – | > 100 µM (inactive) | > 100 µM (inactive)
C/C(=N\NC(N)=O)C(CN1CCOCC1)C(c1ccccc1)c1c(O)c2ccccc2oc1=O (centres undefined) | > 100 µM (inactive) | – | > 100 µM (inactive) | – | – | > 100 µM | > 100 µM (inactive) | > 100 µM (inactive) | > 100 µM (inactive) | > 100 µM (inactive) | > 100 µM (inactive) | > 100 µM (inactive) | > 100 µM (inactive) | – | > 100 µM (inactive) | > 100 µM (inactive) | > 100 µM (inactive) | 8.63 µM (inactive) | – | > 100 µM (inactive)
COC1C(O)CC(OC2CC(OC3CC(O[C@@H]4C(=O)c5c(cc6cc(OC7CC(OC8CC(O)C(O)C(C)O8)C(O)C(C)O7)c(C)c(O)c6c5O)C[C@H]4[C@H](OC)C(=O)[C@@H](O)[C@@H](C)O)OC(C)C3O)OC(C)C2O)OC1C (some centres undefined) | – | < 0.012 µM (active) | < 0.0194 µM (active) | < 0.0173 µM (active) | < 0.01 µM (active) | 0.673 µM | 0.0318 µM (active) | < 0.0151 µM (active) | < 0.0129 µM (active) | – | 0.0141 µM (active) | 0.0671 µM (active) | – | < 0.01 µM (active) | < 0.01 µM (active) | < 0.0236 µM (active) | < 0.0175 µM (active) | – | < 0.01 µM (active) | –
CS(=O)(=O)OCCN(CCOS(C)(=O)=O)c1ccc(/C=N/N=c2/nc[nH]c3nc[nH]c23)cc1 | 24.9 µM (inactive) | 28.2 µM (inactive) | 27.6 µM (inactive) | 14.9 µM (inactive) | 15.7 µM (inactive) | 31 µM | 28.3 µM (inactive) | 26.2 µM (inactive) | 20.4 µM (inactive) | – | 12.9 µM (inactive) | 22.7 µM (inactive) | – | – | 17.3 µM (inactive) | 26.2 µM (inactive) | 20.6 µM (inactive) | 25.7 µM (inactive) | 7.76 µM (inactive) | –
COc1ccc2nc(NC(=O)C(=O)C(C#N)c3ccc(CC#N)cc3)sc2c1 (centres undefined) | > 100 µM (inactive) | > 100 µM (inactive) | 53 µM (inactive) | > 100 µM (inactive) | > 100 µM (inactive) | > 100 µM | 54.6 µM (inactive) | > 100 µM (inactive) | > 100 µM (inactive) | – | > 100 µM (inactive) | > 100 µM (inactive) | – | – | > 100 µM (inactive) | > 100 µM (inactive) | > 100 µM (inactive) | > 100 µM (inactive) | > 100 µM (inactive) | –
Cc1cn(CC2=NCC(C)N2)c(=O)[nH]c1=O (centres undefined) | > 100 µM (inactive) | > 100 µM (inactive) | > 100 µM (inactive) | > 100 µM (inactive) | > 100 µM (inactive) | > 100 µM | > 100 µM (inactive) | > 100 µM (inactive) | > 100 µM (inactive) | > 100 µM (inactive) | > 100 µM (inactive) | – | > 100 µM (inactive) | > 100 µM (inactive) | > 100 µM (inactive) | > 100 µM (inactive) | > 100 µM (inactive) | > 100 µM (inactive) | > 100 µM (inactive) | –
O=C(O)c1ccc(Nc2nc3cc(C(F)(F)F)ccc3nc2C(=O)O)cc1 | > 100 µM (inactive) | > 100 µM (inactive) | > 100 µM (inactive) | > 100 µM (inactive) | > 100 µM (inactive) | > 100 µM | > 100 µM (inactive) | – | > 100 µM (inactive) | > 100 µM (inactive) | 93.3 µM (inactive) | > 100 µM (inactive) | > 100 µM (inactive) | – | > 100 µM (inactive) | – | > 100 µM (inactive) | > 100 µM (inactive) | > 100 µM (inactive) | > 100 µM (inactive)
O=C(C#Cc1ccccc1)NC/C=C/c1ccccc1 | 33.6 µM (inactive) | 22.8 µM (inactive) | 26.7 µM (inactive) | 38.6 µM (inactive) | 14.8 µM (inactive) | 38.9 µM | 33.4 µM (inactive) | 36 µM (inactive) | 35.5 µM (inactive) | – | 31.5 µM (inactive) | 48.1 µM (inactive) | – | – | 41.7 µM (inactive) | 22.2 µM (inactive) | > 100 µM (inactive) | 52 µM (inactive) | 47.9 µM (inactive) | –
CCN(CC)c1nnc(CCCCCCCCc2nnc(N(CC)CC)o2)o1 | > 100 µM (inactive) | > 100 µM (inactive) | > 100 µM (inactive) | > 100 µM (inactive) | > 100 µM (inactive) | > 100 µM | > 100 µM (inactive) | > 100 µM (inactive) | > 100 µM (inactive) | > 100 µM (inactive) | > 100 µM (inactive) | > 100 µM (inactive) | > 100 µM (inactive) | – | > 100 µM (inactive) | > 100 µM (inactive) | > 100 µM (inactive) | > 100 µM (inactive) | > 100 µM (inactive) | > 100 µM (inactive)
O=C(O)CNC(=O)C(CSC(=O)OCC1c2ccccc2-c2ccccc21)NC(=O)CCC(NC(=O)OCC1c2ccccc2-c2ccccc21)C(=O)O (centres undefined) | 17.1 µM (inactive) | 14.2 µM (inactive) | > 100 µM (inactive) | 16.6 µM (inactive) | 18.7 µM (inactive) | 20 µM | 18.7 µM (inactive) | 14.3 µM (inactive) | > 100 µM (inactive) | 17.5 µM (inactive) | 17.5 µM (inactive) | 15 µM (inactive) | 15.5 µM (inactive) | – | 18 µM (inactive) | > 100 µM (inactive) | > 100 µM (inactive) | – | 18.6 µM (inactive) | 18.9 µM (inactive)
C#CC1(O)CCC2[C@@H]3CCc4cc(Oc5nc(F)nc(-c6c7ccccc7cn6C)n5)ccc4C3CC[C@@]21C (some centres undefined) | > 67 µM (inactive) | > 100 µM (inactive) | > 100 µM (inactive) | > 100 µM (inactive) | > 93.1 µM (inactive) | > 72.3 µM | > 62.1 µM (inactive) | > 100 µM (inactive) | > 100 µM (inactive) | – | > 88.1 µM (inactive) | > 100 µM (inactive) | – | – | > 100 µM (inactive) | > 100 µM (inactive) | > 100 µM (inactive) | > 100 µM (inactive) | > 79.3 µM (inactive) | –
COc1cccc2c1[C@]1(O)C(O)CCCC21 (some centres undefined) | > 100 µM (inactive) | > 100 µM (inactive) | > 100 µM (inactive) | > 100 µM (inactive) | > 100 µM (inactive) | > 100 µM | > 100 µM (inactive) | > 100 µM (inactive) | > 100 µM (inactive) | – | > 100 µM (inactive) | > 100 µM (inactive) | – | – | > 100 µM (inactive) | > 100 µM (inactive) | > 100 µM (inactive) | > 100 µM (inactive) | > 100 µM (inactive) | –
